From patent US6753024B2, “Method for making a food preservative and for preserving food” (The United States of America as represented by the …, priority 2002, dated 2004)

System: Micrococcus luteus ATCC 10240
Experiment: Inhibition of test bacteria by nisin produced in fermented poi
Assay type: cell-based
Settings: nisin produced by Lactococcus lactis subspecies lactis ATCC 11454 in taro; test bacteria known to cause food spoilage
Description: The nisin inhibits a test bacteria, Micrococcus luteus ATCC 10240, known to cause food spoilage. Thus, the Lactococcus lactis subspecies lactis ATCC 11454 grows in the taro and produces a bacteriocin therein.

nisin
inhibition of test bacteria: inhibits
